This passage reports MIC and IC50 results from patent publication US12258342B2, “Class of DNA gyrase and/or topoisomerase IV inhibitors with activity against gram-positive and gram-negative bacteria” (Univerza v Ljubljani, priority 2018, dated 2025).

One may read the IC50 as the concentration that inhibits the measured activity by half.

The test system of assay [1] is E. coli ATCC 25922. Briefly: Microbroth dilution MIC (CLSI). The settings on record: Escherichia coli, ATCC25922, read-out: MIC (μg/mL) E. coli ATCC 25922.
The target in assay [2] is E. coli topoisomerase IV (Escherichia coli (strain K12), UniProt P20083). Briefly: Topoisomerase IV inhibition assay (Inspiralis, streptavidin-coated plates). The assay is classed as biochemical. The protocol:
Inhibitory activities for compounds of the present invention were determined on E. coli and S. aureus DNA gyrase and topoisomerase IV in an assay from Inspiralis on streptavidin-coated 96-well microtiter plates from Thermo scientific Pierce. […] After washing off the unbound oligonucleotide, the enzyme test was performed. […] Reaction solutions were incubated at 37° C. for 30 min. After that, the TF buffer (50 mM NaOAc with pH 5.0, 50 mM NaCl and 50 mM MgCl2) was added to terminate the enzymatic reaction. After additional incubation for 30 min at rt, during which biotin-oligonucleotide-plasmid triplex was formed, the unbound plasmid was washed off using TF buffer and SybrGOLD in T10 buffer (10 mM Tris HCl with pH 8.0 and 1 mM EDTA) was added. […] Initial screening was done at 100 or 10 nM concentration of inhibitors against E. coli DNA gyrase or 1 μM or 100 nM concentration against S. aureus DNA gyrase and E. coli and S. aureus topo IV. […] GraphPad Prism 6.0 software was used to calculate the IC50 values. The result is given as the average value of three independent measurements. […] Chemoth.

In assay [3] the test system is E. faecalis ATCC 29212. Briefly: Microbroth dilution MIC (CLSI). Particulars: Enterococcus faecalis, ATCC29212, read-out: MIC (μg/mL) E. faecalis ATCC 29212.
The subject of assay [4] is E. faecium ATCC 35667. Briefly: Microbroth dilution MIC (CLSI). The settings on record: Enterococcus faecium, ATCC35667, read-out: MIC (μg/mL) E. faecium ATCC 35667.
Assay [5] concerns the target E. coli DNA gyrase (Escherichia coli (strain K12), UniProt P0AES6). Briefly: DNA gyrase inhibition assay (Inspiralis, streptavidin-coated plates). It is filed as biochemical. The protocol: (§1) Inhibitory activities for compounds of the present invention were determined on E. coli and S. aureus DNA gyrase and topoisomerase IV in an assay from Inspiralis on streptavidin-coated 96-well microtiter plates from Thermo scientific Pierce. […] After washing off the unbound oligonucleotide, the enzyme test was performed. […] Reaction solutions were incubated at 37° C. for 30 min. After that, the TF buffer (50 mM NaOAc with pH 5.0, 50 mM NaCl and 50 mM MgCl2) was added to terminate the enzymatic reaction. After additional incubation for 30 min at rt, during which biotin-oligonucleotide-plasmid triplex was formed, the unbound plasmid was washed off using TF buffer and SybrGOLD in T10 buffer (10 mM Tris HCl with pH 8.0 and 1 mM EDTA) was added. […] GraphPad Prism 6.0 software was used to calculate the IC50 values. The result is given as the average value of three independent measurements. […] Chemoth.

The target in assay [6] is S. aureus topoisomerase IV (Staphylococcus aureus, UniProt P0C1S7). Briefly: Topoisomerase IV inhibition assay (Inspiralis, streptavidin-coated plates). It is filed as biochemical. Particulars: read-out: IC50 DNA topoisomerase IV from S. aureus. The protocol: Inhibitory activities for compounds of the present invention were determined on E. coli and S. aureus DNA gyrase and topoisomerase IV in an assay from Inspiralis on streptavidin-coated 96-well microtiter plates from Thermo scientific Pierce. First, the plates were rehydrated with buffer (20 mM Tris-HCl with pH 7.6, 0.01% w/v BSA, 0.05% v/v Tween 20, 137 mM NaCl) and the biotinylated oligonucleotide was then immobilized. After washing off the unbound oligonucleotide, the enzyme test was performed. […] Reaction solutions were incubated at 37° C. for 30 min. After that, the TF buffer (50 mM NaOAc with pH 5.0, 50 mM NaCl and 50 mM MgCl2) was added to terminate the enzymatic reaction. After additional incubation for 30 min at rt, during which biotin-oligonucleotide-plasmid triplex was formed, the unbound plasmid was washed off using TF buffer and SybrGOLD in T10 buffer (10 mM Tris HCl with pH 8.0 and 1 mM EDTA) was added. The fluorescence was measured with a microplate reader (BioTek Synergy H4, excitation: 485 nm, emission: 535 nm). […]. GraphPad Prism 6.0 software was used to calculate the IC50 values. The result is given as the average value of three independent measurements. […]. Chemoth. 66, 2061-2096 (2011))) for E. coli and S. aureus topoisomerase IV) was used.

In assay [7] the target is S. aureus DNA gyrase (Staphylococcus aureus, UniProt P0A0K8). Briefly: biochemical. Particulars: read-out: IC50 DNA gyrase from S. aureus. The protocol:
as §1

Assay [8] concerns S. aureus ATCC 29213. Briefly: Microbroth dilution MIC (CLSI). The settings on record: Staphylococcus aureus, ATCC29213, read-out: MIC (μg/mL) S. aureus ATCC 29213. In general terms: Dilution methods test growth across graded concentrations, often in twofold steps.

Converted amounts (≈) assume the structure as drawn.

Chain of E. coli topoisomerase IV (P20083 whole entry, looked up): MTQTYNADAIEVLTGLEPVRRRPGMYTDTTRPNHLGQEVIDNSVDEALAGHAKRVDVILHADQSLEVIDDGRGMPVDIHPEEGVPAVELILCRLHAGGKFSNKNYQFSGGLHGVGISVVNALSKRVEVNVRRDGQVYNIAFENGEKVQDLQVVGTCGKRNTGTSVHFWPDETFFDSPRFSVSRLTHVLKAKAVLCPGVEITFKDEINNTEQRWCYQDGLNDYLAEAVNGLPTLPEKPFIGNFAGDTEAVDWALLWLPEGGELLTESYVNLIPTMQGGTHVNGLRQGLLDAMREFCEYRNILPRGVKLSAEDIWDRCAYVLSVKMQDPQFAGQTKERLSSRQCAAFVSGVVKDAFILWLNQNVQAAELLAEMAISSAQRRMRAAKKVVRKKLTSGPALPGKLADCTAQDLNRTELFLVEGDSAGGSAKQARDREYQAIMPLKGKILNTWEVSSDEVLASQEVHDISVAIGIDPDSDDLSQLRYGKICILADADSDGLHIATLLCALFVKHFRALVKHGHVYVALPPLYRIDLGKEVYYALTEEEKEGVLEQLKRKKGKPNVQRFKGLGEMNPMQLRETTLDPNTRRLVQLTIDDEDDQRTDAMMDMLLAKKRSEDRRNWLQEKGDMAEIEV
Chain of E. coli topoisomerase IV (P0AFI2 whole entry partner, looked up): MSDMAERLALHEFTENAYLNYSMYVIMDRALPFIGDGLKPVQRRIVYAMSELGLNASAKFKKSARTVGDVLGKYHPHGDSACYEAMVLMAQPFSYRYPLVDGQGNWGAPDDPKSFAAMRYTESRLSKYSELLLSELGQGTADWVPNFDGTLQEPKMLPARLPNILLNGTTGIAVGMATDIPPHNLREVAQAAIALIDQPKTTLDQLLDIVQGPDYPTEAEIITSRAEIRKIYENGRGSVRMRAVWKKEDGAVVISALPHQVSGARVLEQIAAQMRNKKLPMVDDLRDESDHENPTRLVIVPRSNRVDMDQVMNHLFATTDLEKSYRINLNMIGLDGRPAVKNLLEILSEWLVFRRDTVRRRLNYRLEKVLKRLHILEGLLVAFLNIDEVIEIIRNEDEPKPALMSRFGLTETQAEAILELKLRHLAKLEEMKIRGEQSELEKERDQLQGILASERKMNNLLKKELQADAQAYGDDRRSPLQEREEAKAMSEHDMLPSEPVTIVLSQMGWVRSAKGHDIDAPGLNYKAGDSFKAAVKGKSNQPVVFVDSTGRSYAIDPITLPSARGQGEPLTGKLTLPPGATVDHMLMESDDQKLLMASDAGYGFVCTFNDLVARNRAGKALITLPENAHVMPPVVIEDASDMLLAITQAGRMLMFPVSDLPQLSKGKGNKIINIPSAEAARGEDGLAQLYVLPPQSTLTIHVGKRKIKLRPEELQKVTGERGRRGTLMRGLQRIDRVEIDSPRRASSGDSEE

Turning to `Cc1[nH]c(C(=O)Nc2nc3c(OCCN4CCOCC4)cc(C(=O)O)cc3s2)c(Cl)c1Cl.Cl` [Example 10, 4-(2-((6-carboxy-2-(3,4-dichloro-5-methyl-1H-pyrrole-2-carboxamido)benzo[d]thiazol-4-yl)oxy)ethyl)morpholin-4-ium chloride], the MIC in assay [1] is more than 64 µg/mL; in assay [3], 8 µg/mL; in assay [4], 40.2 µg/mL; in assay [8], more than 64 µg/mL. Moreover, the IC50 in assay [2] was less than 400 nM; in assay [5], less than 5 nM; in assay [6], less than 400 nM; in assay [7], less than 20 nM.

For the compound `Cc1[nH]c(C(=O)Nc2nc3ccc(C(=O)NCC(=O)O)cc3s2)c(Cl)c1Cl` [Example 23, (2-(3,4-dichloro-5-methyl-1H-pyrrole-2-carboxamido)benzo[d]thiazole-6-carbonyl)glycine], the MIC in assay [1] was more than 64 µg/mL; in assay [3] it was 16 µg/mL (≈ 37.4 µM); in assay [8], 64 µg/mL (≈ 150 µM). Also, the half-maximal inhibitory concentration (IC50) in assay [2] is less than 400 nM; in assay [5], 7.1 ± 3.2 nM; in assay [6], less than 400 nM; in assay [7], less than 20 nM.

Turning to `Cc1[nH]c(C(=O)Nc2nc3c(OCc4cccc(C(=O)O)c4)cc(C(=O)O)cc3s2)c(Cl)c1Cl` [Example 24, 4-((3-carboxybenzyl)oxy)-2-(3,4-dichloro-5-methyl-1H-pyrrole-2-carboxamido)benzo[d]thiazole-6-carboxylic acid], the MIC was more than 64 µg/mL in assay [1], 1.5 µg/mL (≈ 2.88 µM) in assay [3] and more than 64 µg/mL in assay [8]. Moreover, the IC50 in assay [2] is less than 400 nM; in assay [5], less than 5 nM; in assay [6], less than 400 nM; in assay [7], less than 20 nM.

On to `Cc1[nH]c(C(=O)Nc2nc3c(OCc4ccsc4)cc(C(=O)O)cc3s2)c(Cl)c1Cl` [Example 31, 2-(3,4-dichloro-5-methyl-1H-pyrrole-2-carboxamido)-4-(thiophen-3-ylmethoxy)benzo[d]thiazole-6-carboxylic acid], for which the figures for the MIC in assay [1], in assay [3] and in assay [8] were 4 µg/mL (≈ 8.29 µM), 0.0156 µg/mL (≈ 0.0323 µM) and 0.25 µg/mL (≈ 0.518 µM), respectively. The 50% inhibitory concentration (IC50) was less than 400 nM in assay [2], less than 5 nM in assay [5], less than 400 nM in assay [6] and less than 20 nM in assay [7].

Consider `Cc1[nH]c(C(=O)Nc2nc3c(OCc4cccs4)cc(C(=O)O)cc3s2)c(Cl)c1Cl` [Example 32, 2-(3,4-dichloro-5-methyl-1H-pyrrole-2-carboxamido)-4-(thiophen-2-ylmethoxy)benzo[d]thiazole-6-carboxylic acid], for which the figures for the MIC in assay [1], in assay [3] and in assay [8] were 8 µg/mL (≈ 16.6 µM), 0.0163 µg/mL (≈ 0.0337 µM) and 0.065 µg/mL (≈ 0.135 µM), respectively. Further, the IC50 in assay [2] was less than 400 nM; in assay [5], less than 5 nM; in assay [6], less than 400 nM; in assay [7] it was less than 20 nM.

Turning to `Cc1[nH]c(C(=O)Nc2nc3c(N4CCCC4)cc(C(=O)O)cc3s2)c(Cl)c1Cl` [Example 37, 2-(3,4-dichloro-5-methyl-1H-pyrrole-2-carboxamido)-4-(pyrrolidin-1-yl)benzo[d]thiazole-6-carboxylic acid], the MIC in assay [1] stood at 16 µg/mL (≈ 36.4 µM); in assay [3], 0.125 µg/mL (≈ 0.285 µM); in assay [8], 0.25 µg/mL (≈ 0.569 µM). For the same compound, the IC50 in assay [2] was less than 400 nM; in assay [5] it was less than 5 nM; in assay [6], less than 400 nM; in assay [7] it was less than 20 nM.

With `Cc1[nH]c(C(=O)Nc2nc3c(-c4ccccc4)cc(C(=O)O)cc3s2)c(Cl)c1Cl` [Example 44, 2-(3,4-dichloro-5-methyl-1H-pyrrole-2-carboxamido)-4-phenylbenzo[d]thiazole-6-carboxylic acid], the MIC was more than 64 µg/mL in assay [1], 0.023 µg/mL (≈ 0.0515 µM) in assay [3] and 0.0312 µg/mL (≈ 0.07 µM) in assay [8]. Moreover, the IC50 was less than 400 nM in assay [2], less than 5 nM in assay [5], less than 400 nM in assay [6] and less than 20 nM in assay [7].
